# Read-outs that look alike come from different tables or passages of the source.
# Key:
# Human Serum Albumin [1] = details: cited from earlier work
# [2] = 435 nanometers; cited from earlier work
# HSA [3] = molecular target: T1, HSA (Homo sapiens, UniProt P02768); experiment: ANS-HSA complex solution assay, fluorescence (ANS binding and displacement by bilirubin)
# T1 construct: purchased Pentex, Miles Laboratories, Inc
# Protocol: Where the detectable ligand used in the following Examples was a fluorescent probe, arbitrary fluorescence, F, was recorded both immediately before and after addition of bilirubin (B) to the complex. The difference in these F values (i.e. ΔF) was then expressed as a percentage value by arbitrarily designating the F value for the complex at 100 prior to addition of any bilirubin analyte to the complex (i.e. at zero B concentration). A series of Δ F values were then plotted for a given complex having a constant D/P ratio against a series of liquid test samples containing varying B concentrations. As a result, one obtained a calibration curve for that complex. A liquid test sample containing an unknown amount of B, could then be evaluated by the Δ F value for that sample using the calibrated complex and then locating this Δ F value on the previously prepared calibration curve for the complex.
# In this Example, fluorescence of the ANS-albumin complex was obtained by exciting the complex at an excitation maximum of 386 nanometers. […] As is known, the fluorescent probe ANS is highly fluorescent when associated with albumin, but is non-fluorescent when free in solution.
# The fluorescence of each of these individual test solutions was monitored as bilirubin-containing test samples were admixed into these individual solutions. […]
# Human Serum Albumin [4] = details: cited from earlier work; for first order binding constant KA to human serum albumin: Kragh-Hansen et al. 1974
# HSA [5] = molecular target: T1, HSA; experiment: Bromophenol blue-HSA binding and competitive displacement by bilirubin, ultrafiltration, 590 nm
# Excerpt: In this Example, a solution assay for bilirubin in accord with the method of the present invention is illustrated. […] Using an Amicon Ultraflo Membrane Cone CF-25 (having a molecular weight cutoff of 25,000 daltons) in an ultrafiltration technique as described by U. Kragh-Hansen et. al., Biochim. et Biophys.
# [6] = Molar absorptivity / extinction coefficient; assay type: physicochemical; details: at or near 590 nanometers
# Excerpt: Among others, there are various direct spectrophotometric assay techniques for bilirubin which take advantage of the molar absorbtivity inherent in bilirubin. That is, bilirubin is a yellow pigment having a molar absorbtivity of about 5 × 10^4 as measured at 435 nanometers. However, although the molar absorbtivity of bilirubin is high enough to be useful in various direct spectrophotometric solution assay techniques, it is not sufficiently high to produce a quantitative assay for bilirubin using "dry chemistry" analytical test elements. Thus, present-day direct spectrophotometric assay techniques for bilirubin are generally limited to solution assay techniques, particularly if accurate, quantitative results are desired. […] In addition, other materials present in bilirubin-containing biological fluids such as human serum can also cause spectral interferences using such direct spectrophotometric assay methods.
# In this Example, a solution assay for bilirubin in accord with the method of the present invention is illustrated. The assay of the present Example is similar to that described in Examples 1 and 2 above, except that the present Example illustrates the use of a colorimetric, rather than a fluorometric, assay using bromophenol blue indicator dye as the detectable ligand in the bilirubin-active complex. […]
# T1 sequence (P02768 25-609): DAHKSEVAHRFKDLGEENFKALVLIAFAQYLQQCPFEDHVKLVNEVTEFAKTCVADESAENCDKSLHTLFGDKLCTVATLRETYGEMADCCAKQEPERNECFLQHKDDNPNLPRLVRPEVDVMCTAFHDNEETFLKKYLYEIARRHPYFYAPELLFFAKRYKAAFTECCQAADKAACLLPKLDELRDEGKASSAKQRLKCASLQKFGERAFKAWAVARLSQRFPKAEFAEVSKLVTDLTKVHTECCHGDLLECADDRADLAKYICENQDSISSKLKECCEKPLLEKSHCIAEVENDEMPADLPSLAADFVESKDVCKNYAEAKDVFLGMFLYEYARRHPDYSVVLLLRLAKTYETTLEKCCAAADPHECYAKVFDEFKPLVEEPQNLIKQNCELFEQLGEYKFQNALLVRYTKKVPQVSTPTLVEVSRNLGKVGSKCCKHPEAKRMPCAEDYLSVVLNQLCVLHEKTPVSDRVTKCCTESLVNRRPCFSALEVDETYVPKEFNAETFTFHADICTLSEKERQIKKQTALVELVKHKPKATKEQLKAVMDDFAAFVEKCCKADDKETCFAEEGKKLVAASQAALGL
compound,measurement,setting,value
C[C@]12CCC(=O)C=C1CC[C@@H]1[C@@H]2[C@@H](O)C[C@]2(C=O)[C@@H](C(=O)CO)CC[C@@H]12 [Aldosterone],Binding Constant of primary or high affinity site(s) KA,"Human Serum Albumin [1]; pH 7.4, 5° C",< 5000 M⁻¹
C=CC1=C(C)/C(=C/c2[nH]c(Cc3[nH]c(/C=C4\NC(=O)C(C)=C4C=C)c(C)c3CCC(=O)O)c(CCC(=O)O)c2C)NC1=O [Bilirubin],Binding Constant of primary or high affinity site(s) KA,"Human Serum Albumin [1]; pH 7.4, 25° C",2.4e+08 M⁻¹
same,Binding Constant of primary or high affinity site(s) KA,"Human Serum Albumin [1]; pH 7.4, 37° C",1.4e+08 M⁻¹
same,molar absorbtivity,[2],about 5 × 10^4
same,reduction in fluorescence of ANS/HSA complexes (displacement of ANS),"HSA [3]; 0.066 mg/dl bilirubin added, pH 7.4",drastic reduction in fluorescence
same,extent of displacement of ANS from albumin (change in fluorescence) versus bilirubin,"HSA [3]; 25 micromoles/l ANS, 15 micromoles/l HSA, bilirubin 0.03-0.33 mg/dl",quasi-linearly related to the amount of bilirubin added
same,first order binding constant KA to human serum albumin,Human Serum Albumin [4],greater than 10^8 M^-1
same,Kd,"Human Serum Albumin [4]; example given for comparison in Example 3, read-out: binding constant to albumin",~10 nM
same,inhibition at 0.244 µg/mL,"HSA [5]; pH 7.4, read-out: decrease in bromophenol blue binding to HSA, standard test solution about 0.0244 mg bilirubin per deciliter added",~33%
same,amount of bromophenol blue competitively displaced from the albumin carrier,"HSA [5]; standard test solution approximately 10 mg bilirubin per deciliter, compared with 0.0244 mg/dl",substantially higher amount
"O=C1NC(=O)C(c2ccccc2)(c2ccccc2)N1 [Dipheylhydantoin, reference compound]",Binding Constant of primary or high affinity site(s) KA,"Human Serum Albumin [1]; pH not given (--), 37° C",6000 M⁻¹
C[C@]12CC[C@@H]3c4ccc(O)cc4CC[C@H]3[C@@H]1CC[C@@H]2O [Estradiol],Binding Constant of primary or high affinity site(s) KA,"Human Serum Albumin [1]; pH 7.4, 5° C",100000 M⁻¹
N[C@@H](Cc1cc(I)c(Oc2cc(I)c(O)c(I)c2)c(I)c1)C(=O)O [L-thyroxine],Binding Constant of primary or high affinity site(s) KA,"Human Serum Albumin [1]; pH 7.4, 24° C",10^6 M^-1
N[C@@H](Cc1c[nH]c2ccccc12)C(=O)O [L-tryptophan],Binding Constant of primary or high affinity site(s) KA,"Human Serum Albumin [1]; pH 7.4, 2° C",16000 M⁻¹
CC(=O)[C@H]1CC[C@H]2[C@@H]3CCC4=CC(=O)CC[C@]4(C)[C@H]3CC[C@]12C [Progesterone],Binding Constant of primary or high affinity site(s) KA,"Human Serum Albumin [1]; pH 7.4, 5° C",37000 M⁻¹
O=C(O)c1ccccc1 [Sodium benzoate],Binding Constant of primary or high affinity site(s) KA,"Human Serum Albumin [1]; pH 7.4, 37° C",1700 M⁻¹
"Nc1ccc(S(=O)(=O)Nc2ncccn2)cc1 [Sulfadiazine, reference compound]",Binding Constant of primary or high affinity site(s) KA,"Human Serum Albumin [1]; pH 7.4, 37° C",820 M⁻¹
"Cc1noc(NS(=O)(=O)c2ccc(N)cc2)c1C [Sulfisoxazole, reference compound]",Binding Constant of primary or high affinity site(s) KA,"Human Serum Albumin [1]; pH 7.4, 37° C",19000 M⁻¹
C[C@]12CC[C@H]3[C@@H](CCC4=CC(=O)CC[C@@]43C)[C@@H]1CC[C@@H]2O [Testosterone],Binding Constant of primary or high affinity site(s) KA,"Human Serum Albumin [1]; pH 7.4, 25° C",42000 M⁻¹
O=c1[nH]c(=O)c2[nH]c(=O)[nH]c2[nH]1 [Urate],Binding Constant of primary or high affinity site(s) KA,"Human Serum Albumin [1]; pH 7.4, 37° C",300 M⁻¹
"O=S1(=O)OC(c2cc(Br)c(O)c(Br)c2)(c2cc(Br)c(O)c(Br)c2)c2ccccc21 [bromophenol blue, reference compound]",extinction coefficient,[6],"approximately 78,000"
same,Kd,HSA [5],500 nM
same,approximate maximum molar binding ratio of bromophenol blue to HSA,HSA [5]; 0.05 M sodium phosphate pH 7.4,about 3.4
CCCCCCCCCCCCCCCC(=O)O [palmitate],Binding Constant of primary or high affinity site(s) KA,"Human Serum Albumin [1]; pH 7.4, 23° C",10^6 M^-1
"O=S1(=O)OC(c2ccc(O)cc2)(c2ccc(O)cc2)c2ccccc21 [phenol red, reference compound]",first order binding constant KA to human serum albumin,Human Serum Albumin [4],about 10^4 M^-1
Gentamicin sulfate [reference compound],Binding Constant of primary or high affinity site(s) KA,"Human Serum Albumin [1]; pH 7.4, 37° C",< 10 M⁻¹
Polymyzin B sulfate [reference compound],Binding Constant of primary or high affinity site(s) KA,"Human Serum Albumin [1]; pH 7.4, 37° C",< 100 M⁻¹

# Source: patent publication US4069016A, “Assay for bilirubin” (priority 1977, dated 1978)
